Measurements taken from article PMC5303145 (Brain research, 2016).
Substitutions are numbered along the chain they refer to.

Tests used:
D97 mutant GlyR = conditions: saturating concentrations of glycine or taurine
D97R α1 GlyR [1] = molecular target: T1, D97R α1 GlyR (Homo sapiens, UniProt P23415, D125R); type: cell-based; conditions: for average current elicited: 10 mM glycine or 100 mM taurine; for increase of maximal currents by the D97R mutation: D97R versus WT; for Imax (% of max glycine): D97R, percentage of maximal glycine current ± S.E.M.
T1 sequence (P23415 29-449 isoform P23415-2 D125R limits assumed): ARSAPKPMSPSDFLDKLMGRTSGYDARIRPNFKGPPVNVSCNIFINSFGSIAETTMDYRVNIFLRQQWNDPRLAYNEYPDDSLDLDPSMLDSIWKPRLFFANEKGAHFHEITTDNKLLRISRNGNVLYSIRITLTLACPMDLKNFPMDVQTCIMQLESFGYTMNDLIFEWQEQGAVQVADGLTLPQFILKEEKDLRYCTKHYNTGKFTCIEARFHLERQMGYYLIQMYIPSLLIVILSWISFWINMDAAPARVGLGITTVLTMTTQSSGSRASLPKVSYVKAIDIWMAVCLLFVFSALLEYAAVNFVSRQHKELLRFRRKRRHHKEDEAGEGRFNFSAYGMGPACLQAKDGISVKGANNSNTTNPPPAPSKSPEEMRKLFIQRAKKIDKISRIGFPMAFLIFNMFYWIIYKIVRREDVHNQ

D97E α1 GlyR = molecular target: T2, D97E α1 GlyR (Homo sapiens, UniProt P23415, D125E); type: cell-based; conditions: for average current elicited: D97E α1 GlyR, 10 mM glycine or 100 mM taurine
T2 sequence (P23415 29-449 isoform P23415-2 D125E limits assumed): T1 sequence (P23415 29-449 isoform P23415-2 D125R limits assumed) with R97E

[2] = molecular target: T3, human α1 glycine receptor WT (Homo sapiens, UniProt P23415); type: cell-based; conditions: for average current elicited: WT GlyR, 10 mM glycine or 100 mM taurine; for Imax (% of max glycine): α1 WT, percentage of maximal glycine current ± S.E.M.
T3 sequence (P23415 29-449 isoform P23415-2 limits assumed): T1 sequence (P23415 29-449 isoform P23415-2 D125R limits assumed) with R97D

D97R α1 GlyR [3] = molecular target: T1, D97R α1 GlyR; type: cell-based; conditions: for conductance of the openings: in the presence of taurine or glycine; for Popen of clusters: saturating concentration (100 mM taurine, 10 mM glycine), 2.5 mM tricine
D97A α1 GlyR = conditions: for Popen of clusters: D97A, saturating concentration (100 mM taurine, 10 mM glycine), 2.5 mM tricine
wildtype α1 GlyR = type: cell-based, human

SMILES	whole-cell current (D97 mutant GlyR)	average current elicited (D97R α1 GlyR [1]; D97R α1 GlyR)	average current elicited (D97E α1 GlyR)	average current elicited [2]	conductance of the openings (D97R α1 GlyR [3])	Popen of clusters (D97R α1 GlyR [3])	total current in patch (D97A α1 GlyR; D97A multi-channel patch, sample tracing, 10 mM glycine)	Popen of clusters (D97A α1 GlyR)	Popen (wildtype α1 GlyR)	maximal taurine response versus maximal glycine response (D97R α1 GlyR [1]; D97R GlyR, 100 mM taurine vs 10 mM glycine)	greater current than glycine (D97R α1 GlyR [1]; D97R α1 GlyR, taurine and glycine both at 300 mM)	Imax (% of max glycine) (D97E α1 GlyR; D97E, percentage of maximal glycine current ± S.E.M.)	EC50 ([2]; EC50, α1 WT, whole-cell, oocytes, 2.5 mM tricine)	Imax (% of max glycine) [2]	increase of maximal currents by the D97R mutation (D97R α1 GlyR [1])	Imax (% of max glycine) (D97R α1 GlyR [1])
NCC(=O)O [Glycine]	3000–5000 nA	3.68 ± 0.37 μA	11.9 ± 2.9 μA	27.6 ± 2.9 μA	approximately 75 pS	0.990 ± 0.001	84 pA	0.938 ± 0.044	–	–	–	–	–	–	–	–
NCCS(=O)(=O)O [Taurine]	3000–5000 nA	3.56 ± 0.36 μA	11.4 ± 2.9 μA	11.8 ± 1.7 μA	approximately 75 pS	0.990 ± 0.002	–	0.987 ± 0.003	0.62 ± 0.06	approximately equal	12.7 ± 7.1%	95.6 ± 4.7%	1960 µM	41 ± 4.5%	–	–
CC(N)CC(=O)O (stereo not drawn) [β-ABA, β-aminobutyric acid]	–	–	–	–	–	–	–	–	–	–	–	–	–	17.3 ± 9.2%	four- to five-fold	89%
CC(CN)C(=O)O (stereo not drawn) [β-AIBA, β-aminoisobutyric acid]	–	–	–	–	–	–	–	–	–	–	–	–	–	15.3 ± 3.3%	four- to five-fold	61%
